From patent publication EP0354522A1, “Use of alpha-aminoboronic acid derivatives in prevention and treatement of viral diseases” (HOECHST AKTIENGESELLSCHAFT, priority 1988, dated 1990)

Target: T1, HIV-Protease (Human immunodeficiency virus type 1 group M subtype B, UniProt P04585)
T1 construct: Max-Planck-Institut für Molekulare Genetik, Berlin
Test: HIV protease test (cleavage of heptapeptide Ser-Phe-Asn-Phe-Pro-Gln-Ile, HPLC quantification of Ser-Phe-Asn-Phe)
Format: biochemical
Conditions: 2 h, 37°C; for IC50: cloned HIV protease, pH ca. 6,0; for activity at 100 µM / Restakt. bei 10^-4 M: residual enzyme activity at 10^-4 M inhibitor, 100 % = mean of runs without inhibitor, pH ca. 6,0, 1 % DMSO; for activity at 100 µM: read-out: Restakt. bei 10^-4 M; for Restakt. bei 10^-4 M: 100 µM
Description: Als synthetisches Substrat ist ein Heptapeptid der Sequenz Ser-Phe-Asn-Phe-Pro-Gln-Ile geeignet. Diese Sequenz tritt im natürlichen Substrat der Protease auf und liefert bei der autokatalytischen Freisetzung nach einer Phe-Pro-Spaltung den N-terminalen Beginn der Proteasesequenz (Pro-Gln-Ile...).
Es wird eine klonierte HIV-Protease (Max-Planck-Institut für Molekulare Genetik, Berlin) benutzt. [drawing 5]
Von den Reaktionsprodukten wird Ser-Phe-Asn-Phe zur Abtrennung und quantitativen Bestimmung mittels HPLC herangezogen.
Nach 2 Stunden bei 37°C werden die Ansätze mit 225 µl HPLC-Elutionsmittel (s.u.) gestoppt. Etwa 150 µl des zentrifugierten Überstands (Eppendorf-Zentrifuge) werden in Mikrovials gefüllt. Das Injektionsvolumen für die HPLC-Trennung beträgt 20 µl. Ser-Phe-Asn-Phe wird durch Vergleich mit einem externen Standard bekannter Konzentration (0,5 µg/ 20 µl) quantitativ bestimmt und stellt die Meßgröße der Enzymaktivität (µg Tetrapeptid pro 20 µl Meßprobe) dar. Bezugswert (= 100 % Enzymaktivität) ist der Mittelwert aus 2 oder mehr Ansätzen ohne Inhibitor. Als Standard-Inhibitor wird Pepstatin A (10⁻⁴ oder 10⁻⁵ M) verwendet.
• a) Substratlösung: 2 mg Ser-Phe-Asn-Phe-Pro-Gln-Ile werden in 1 ml MGTE 15-Puffer gelöst. • b) Testsubstanzen: Diese werden 10⁻² oder 10⁻³ M in Dimethylsulfoxid (DMSO) gelöst und 1 : 40 mit MGTE 15-Puffer verdünnt; 10 µl dieser Lösung werden pro Ansatz verwendet; die Endkonzentration des Präparates beträgt 10⁻⁴ bzw. 10⁻⁵ M; die DMSO-Konzentration in allen Testansätzen ist 1 %. Für IC₅₀-Bestimmungen wird das Präparat, ausgehend von 10⁻² M, mit 100 % DMSO in der geeigneten Weise verdünnt. • c) Proteaselösung: Das Enzym wird mit MGTE 25-Puffer auf eine geeignete Konzentration verdünnt. • d) MGTE 15/25-Puffer 20 mM Morpholinoethansulfonsäure (MES) 15 (25) % (w/v) Glyzerin 0,1 % (v/v) Triton® X 100 (vgl. Merck Index 10, 6601) 5 mM EDTA 0,5 M NaCl 1 mM Dithiothreit (nur für MGTE 25) 1 mM Phenylmethylsulfonylfluorid (PMSF) Der pH-Wert soll ca. 6,0 betragen. • e) HPLC-Elutionsmittel: Eine 0,1 M Phosphorsäure-Lösung wird mit Triethylamin auf pH 2,5 eingestellt. Aus dieser Lösung wird ein Phosphorsäure-Acetonitril-Gemisch mit 22,6 Gewichts-Prozent Acetonitril hergestellt.
Säule: Radial Pak LC Cartridge, 8 mm/C18, 5 µ (der Fa. Waters, USA). Fluß: 1 ml/min Detektoreinstellung: 215 nm, 0,08 AU Zeit pro Analyse: 12 min; Retentionszeiten: Heptapeptid ca. 9,5 min, Tetrapeptid ca. 5,2 min Laufmittel: 77,4 Gew.-% 0,1 M H₃PO₄/pH 2,5 22,6 Gew.-% Acetonitril

Row | IC50 [µM] | activity at 100 µM [%] | Restakt. bei 10^-4 M [%] | Molecule
1 | 7 | – | 7 | (2-Benzyl,3-t-butylsulfonyl)propionyl-Val-(Cyclohexylmethyl,dihydroxyboryl)methylamid [Beispiel 28]
2 | – | – | 77 | (3-t-Butylsulfonyl)propionyl-Nva-(1-Naphthylmethyl, dihydroxyboryl)methylamid [Beispiel 27]
3 | – | – | 78 | Iva-Phe-His-(Cyclooctylmethyl,dihydroxyboryl)methylamid [Beispiel 24]
4 | – | – | 27 | Iva-Phe-Nva-(Cyclooctylmethyl,dihydroxyboryl)methylamid [Beispiel 20]
5 | – | – | 59 | [3-t-Butylsulfonyl,2,(2-thienylmethyl)]propionyl-Thi-(Cyclohexylmethyl,dihydroxyboryl)methylamid [Beispiel 31]
6 | – | – | 61 | [3-t-Butylsulfonyl,2-(2-thienylmethyl)]propionyl-Thi-(Cycloheptylmethyl,dihydroxyboryl)methylamid [Beispiel 33]

More lines, now with the values behind:

Row | Molecule | IC50 [µM] | activity at 100 µM [%] | Restakt. bei 10^-4 M [%]
7 | CC1(C)OB(C(CC2CCCCC2)NC(=O)[C@H](CC(N)=O)NC(=O)C(Cc2cccs2)CS(=O)(=O)C(C)(C)C)OC1(C)C (stereo partly shown) [Beispiel 52, [3-t-Butylsulfonyl, 2-(2-thienylmethyl)]propionyl-Asn-[cyclohexylmethyl,(4,4,5,5-tetramethyl-1,3,2-dioxaborolan-2-yl)]-methylamid] | 100 | 49 | –
8 | CC1(C)OB(C(CC2CCCCC2)NC(=O)[C@H](CC(N)=O)NC(=O)C(Cc2cccc3ccccc23)CS(=O)(=O)C(C)(C)C)OC1(C)C (stereo partly shown) [Beispiel 53, [3-t-Butylsulfonyl,2-(1-naphthylmethyl)]propionyl-Asn-[cyclohexylmethyl,(4,4,5,5-tetramethyl-1,3,2-dioxaborolan-2-yl)]methylamid] | 10 | 10 | –
9 | (2-Benzyl,3-t-butylsulfonyl)propionyl-Nva-(Cyclopentylmethyl,dihydroxyboryl)methylamid [Beispiel 32] | 40 | – | 25
10 | Iva-Phe-Nva-(Cyclohexylmethyl,dihydroxyboryl)methylamid [Beispiel 5] | 70 | – | 38
11 | Iva-Phe-Nva-[Cyclohexylmethyl,[(N-B)-(2,2′-iminodiethanolato)-boryl]]methylamid [Beispiel 6] | – | – | 41
12 | Iva-Phe-Nva-[Cycloundecylmethyl, (4,4,5,5-tetramethyl-1,3,2-dioxaborolan-2-yl)]methylamid [Beispiel 13] | – | – | 35
13 | Iva-Thi-His-(Cyclohexylmethyl,dihydroxyboryl)methylamid [Beispiel 9] | – | – | 93
14 | [3-t-Butylsulfonyl,2-(2-thienylmethyl)]propionyl-Nva-(Cyclohexylmethyl,dihydroxyboryl)methylamid [Beispiel 30] | – | – | 52
